Values quoted from earlier work, collected in patent US7329656B2, “Arylthiobenzylpiperidine derivatives” (H. Lundbeck A/S, priority 2004, dated 2008).
Where two headings read alike, the source gives them in different places.

How the values were obtained:
rat [1] = conditions: rat forced-swim
rat [2] = conditions: rat social interaction
guinea pig = guinea pig maternal-separation vocalization

## COCC1=C(C(=O)OC)[C@H](c2ccc(F)c(F)c2)N(C(=O)NCCCN2CCC(c3cccc(NC(C)=O)c3)CC2)C(=O)N1 [SNAP-7941]
Rat [1]
  behavioral profile in model of depression and/or anxiety: profile similar to clinically used anti-depressants and anxiolytics
Rat [2]
  behavioral profile in model of depression and/or anxiety: profile similar to clinically used anti-depressants and anxiolytics
Guinea pig
  behavioral profile in model of depression and/or anxiety: profile similar to clinically used anti-depressants and anxiolytics
